# According to patent US10533015B1, “Opioid receptor antagonist prodrugs” (Nirsum Laboratories, Inc., priority 2019, dated 2020):
# Read-outs that look alike come from different tables or passages of the source.
# Columns and labels:
# [1] = Plasma stability assay, rat plasma; assay type: in vitro ADME; details: 10 μM, 37° C.
# Method in brief: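 Percentage of parent remaining was followed by HPLC-MS in duplicate, over 0–1440 min for rat and 0–120 min for dog, monkey and human plasma (2 μM, 1% solvent, 37 °C).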
# [2] = Plasma stability assay, dog plasma; assay type: in vitro ADME; details: 2 μM, 37° C.
# Procedure: (§1) Plasma stability determination of the test compounds in rat, dog, cynomolgus monkey and human plasma is performed using HPLC-MS. For rat, incubations are carried out in 96-well polypropylene plates in 5 aliquots of 70 μL each (one for each time point). […] Five time points are analyzed (0, 15, 120, 480 and 1440 min). […] All incubations are performed in duplicates. The samples are analyzed by HPLC-MS. The percentage of parent compound remaining after incubation in plasma is determined.
# [3] = Plasma stability assay, monkey plasma; assay type: in vitro ADME, cynomolgus monkey; details: 2 μM, 37° C.
# Procedure: as §1
# [4] = Plasma stability assay, human plasma; assay type: in vitro ADME; details: 2 μM, 37° C.
# Procedure: as §1
# [5] = Liver S9 fraction stability, dog; assay type: in vitro ADME; details: dog liver S9, 1.0 mg/ml S9 protein, 2 μM, 37° C.
# Procedure: (§2) Liver S9 fraction stability determination of the test compounds in dog, cynomolgus monkey and human is performed using HPLC-MS. Test compound (2 μM, 0.1% DMSO, 1% Methanol final concentration) was assessed for stability in a 50 μl phosphate buffer containing 1.0 mg/ml S9 protein from each of the three species and 5 mM D-saccharic acid-1, 4-lactone. Samples were incubated at 37° C. for 60 minutes and the % compound remaining was assessed.
# [6] = Liver S9 fraction stability, monkey; assay type: in vitro ADME, cynomolgus monkey; details: monkey liver S9, 1.0 mg/ml S9 protein, 2 μM, 37° C.
# Procedure: as §2
# [7] = Liver S9 fraction stability, human; assay type: in vitro ADME; details: human liver S9, 1.0 mg/ml S9 protein, 2 μM, 37° C.
# Procedure: as §2
# [8] = Polymorph screening of solid state drug substances; details: for Dry method and appearance: after stirring 50 °C 72 hours, dried solid; for XRPD results (Dried): dried solid after 50 °C 72 hours; for Visual observation 50° C. / Visual observation RT: target conc. 100 mg/ml
# physchem = details: thermodynamic from solid; for solubility at 24 h: 25 °C, obs. temp. 25 °C; for solubility at 24 h / solubility: heating temp. 60 °C; for solubility: obs. temp. 40 °C
# [9] = heating temp. 40 °C, obs. temp. 40 °C
# [10] = heating temp. 60 °C, obs. temp. 25 °C
structure (smiles),measurement,setting,value
"CCCCCCCCCCCC(=O)OCN1C(=O)CCc2ccc(OCCCCN3CCN(c4cccc(Cl)c4Cl)CC3)cc21 [Aripiprazole Lauroxil, reference compound]",% remaining at time point,[1]; 0 min,100%
same,% remaining at time point,[1]; 15 min,84%
same,% remaining at time point,[1]; 120 min,85.5%
same,% remaining at time point,[1]; 480 min,76.4%
same,% remaining at time point,[1]; 1440 min,46%
same,% remaining at time point,[2]; 0 min,100%
same,% remaining at time point,[2]; 15 min (head),103%
same,% remaining at time point,[2]; 120 min (head),81.3%
same,% remaining at time point,[2]; 480 min (head),78.6%
same,% remaining at time point,[2]; 1440 min (head),74.3%
same,% remaining at time point,[3]; 0 min,100%
same,% remaining at time point,[3]; 15 min (head),95.2%
same,% remaining at time point,[3]; 120 min (head),94.5%
same,% remaining at time point,[3]; 480 min (head),75.5%
same,% remaining at time point,[3]; 1440 min (head),83.2%
same,% remaining at time point,[4]; 0 min,100%
same,% remaining at time point,[4]; 15 min (head),99.7%
same,% remaining at time point,[4]; 120 min (head),80%
same,% remaining at time point,[4]; 480 min (head),73.2%
same,% remaining at time point,[4]; 1440 min (head),75.5%
same,% remaining at 60 minutes,[5],66.1%
same,% remaining at 60 minutes,[6],56.6%
same,% remaining at 60 minutes,[7],47.8%
"CCCCCCCCCCCCCCCC(=O)OC1CCCn2c1nc(C)c(CCN1CCC(c3noc4cc(F)ccc34)CC1)c2=O (centres unmarked) [Paliperidone palmitate, reference compound]",% remaining at time point,[2]; 0 min,100%
same,% remaining at time point,[2]; 15 min (head),91.2%
same,% remaining at time point,[2]; 120 min (head),88.4%
same,% remaining at time point,[2]; 480 min (head),95.9%
same,% remaining at time point,[2]; 1440 min (head),93.1%
same,% remaining at time point,[3]; 0 min,100%
same,% remaining at time point,[3]; 15 min (head),92%
same,% remaining at time point,[3]; 120 min (head),89.5%
same,% remaining at time point,[3]; 480 min (head),98.4%
same,% remaining at time point,[3]; 1440 min (head),92.5%
same,% remaining at time point,[4]; 0 min,100%
same,% remaining at time point,[4]; 15 min (head),103.7%
same,% remaining at time point,[4]; 120 min (head),97.6%
same,% remaining at time point,[4]; 480 min (head),109.1%
same,% remaining at time point,[4]; 1440 min (head),104.1%
same,% remaining at 60 minutes,[5],56.4%
same,% remaining at 60 minutes,[6],57.4%
same,% remaining at 60 minutes,[7],47.8%
"CCCCCCCCCCCCOC(=O)Oc1ccc2c3c1O[C@H]1C(=O)CC[C@@]4(O)C(C2)N(CC2CC2)CC[C@]314 [Compound 11, (4aS,7aR,12bS)-3-(cyclopropylmethyl)-4a-hydroxy-7-oxo-2,3,4,4a,5,6,7,7a-octahydro-1H-4,12-methanobenzofuro[3,2-e]isoquinolin-9-yl dodecyl carbonate]",% remaining at time point,[1]; 0 min,100%
same,% remaining at time point,[1]; 15 min,0.7%
same,% remaining at time point,[1]; 120 min,0.3%
same,% remaining at time point,[1]; 480 min,0.2%
same,% remaining at time point,[1]; 1440 min,0%
same,Approximate Solubility (mg/mL) in Excipient: Cottonseed oil,[9],>407 mg/mL
same,Approximate Solubility (mg/mL) in Excipient: Cottonseed oil,[10],<51 mg/mL
same,Approximate Solubility (mg/mL) in Excipient: Ethanol,[9],>218 mg/mL
same,Approximate Solubility (mg/mL) in Excipient: Sesame oil,[9],>407 mg/mL
same,Approximate Solubility (mg/mL) in Excipient: Sesame oil,[10],<50 mg/mL
same,Dry method and appearance,[8]; Acetone,Evaporation/white powder
same,XRPD results (Dried),[8]; Acetone,Pattern A
same,Visual observation 50° C.,[8]; Acetone,Clear
same,Visual observation RT,[8]; Acetone,Slurry
same,Dry method and appearance,[8]; EtOAc,Evaporation/white powder
same,XRPD results (Dried),[8]; EtOAc,Pattern A
same,Visual observation 50° C.,[8]; EtOAc,Clear
same,Visual observation RT,[8]; EtOAc,Slurry
same,Dry method and appearance,[8]; Heptane,Evaporation/white powder
same,XRPD results (Dried),[8]; Heptane,Pattern B
same,Visual observation 50° C.,[8]; Heptane,Clear
same,Visual observation RT,[8]; Heptane,Clear
same,Dry method and appearance,[8]; Isopropanol,Evaporation/white powder
same,XRPD results (Dried),[8]; Isopropanol,Pattern A
same,Visual observation 50° C.,[8]; Isopropanol,Clear
same,Visual observation RT,[8]; Isopropanol,Slurry
same,Dry method and appearance,[8]; MTBE,Evaporation/white powder
same,XRPD results (Dried),[8]; MTBE,Pattern A
same,Visual observation 50° C.,[8]; MTBE,Clear
same,Visual observation RT,[8]; MTBE,Clear
"C=C1CC[C@@]2(O)C3Cc4ccc(OC(=O)OCCCCCCCCCCCCCCCC)c5c4[C@@]2(CCN3CC2CC2)[C@H]1O5 [Compound 19, (4aS,7aS,12bS)-3-(cyclopropylmethyl)-4a-hydroxy-7-methylene-2,3,4,4a,5,6,7,7a-octahydro-1H-4,12-methanobenzofuro[3,2-e]isoquinolin-9-yl hexadecyl carbonate]",% remaining at time point,[1]; 0 min,100%
same,% remaining at time point,[1]; 15 min,70.1%
same,% remaining at time point,[1]; 120 min,71.5%
same,% remaining at time point,[1]; 480 min,43.8%
same,% remaining at time point,[1]; 1440 min,33.3%
same,Approximate Solubility (mg/mL) in Excipient: Cottonseed oil,[9],67 to 80 mg/mL
same,Approximate Solubility (mg/mL) in Excipient: Ethanol,[9],27 to 42 mg/mL
same,Approximate Solubility (mg/mL) in Excipient: Sesame oil,[9],103 to 137 mg/mL
same,Dry method and appearance,[8]; Acetone,Evaporation/white powder
same,XRPD results (Dried),[8]; Acetone,Pattern A
same,Visual observation 50° C.,[8]; Acetone,Clear
same,Visual observation RT,[8]; Acetone,Slurry
same,Dry method and appearance,[8]; EtOAc,Evaporation/white powder
same,XRPD results (Dried),[8]; EtOAc,Pattern A
same,Visual observation 50° C.,[8]; EtOAc,Clear
same,Visual observation RT,[8]; EtOAc,Slurry
same,Dry method and appearance,[8]; Heptane,Evaporation/white powder
same,XRPD results (Dried),[8]; Heptane,Pattern A
same,Visual observation 50° C.,[8]; Heptane,Clear
same,Visual observation RT,[8]; Heptane,Slurry
same,Dry method and appearance,[8]; Isopropanol,Evaporation/white powder
same,XRPD results (Dried),[8]; Isopropanol,Pattern A
same,Visual observation 50° C.,[8]; Isopropanol,Clear
same,Visual observation RT,[8]; Isopropanol,Slurry
same,Dry method and appearance,[8]; MTBE,Evaporation/white powder
same,XRPD results (Dried),[8]; MTBE,Pattern A
same,Visual observation 50° C.,[8]; MTBE,Clear
same,Visual observation RT,[8]; MTBE,Clear
"C=C1CC[C@@]2(O)C3Cc4ccc(OC(=O)CCCCCCCCCCC)c5c4[C@@]2(CCN3CC2CC2)[C@H]1O5 [Compound 59, (4aS,7aS,12bS)-3-(cyclopropylmethyl)-4a-hydroxy-7-methylene-2,3,4,4a,5,6,7,7a-octahydro-1H-4,12-methanobenzofuro[3,2-e]isoquinolin-9-yl dodecanoate, reference compound]",% remaining at time point,[1]; 0 min,100%
same,% remaining at time point,[1]; 15 min,5.9%
same,% remaining at time point,[1]; 120 min,0.7%
same,% remaining at time point,[1]; 480 min,0.2%
same,% remaining at time point,[1]; 1440 min,0%
same,solubility at 24 h,"physchem; oil or lipid, Approximate Solubility (mg/mL) in Excipient: Cottonseed oil, Cottonseed oil",> 414 mg/mL
same,solubility at 24 h,"physchem; oil or lipid, Approximate Solubility (mg/mL) in Excipient: Sesame oil, Sesame oil",> 393 mg/mL
same,solubility thermodynamic,"physchem; 40 °C, water",< 0.001 mg/mL
"C=C1CC[C@@]2(O)[C@H]3Cc4ccc(O)c5c4[C@@]2(CCN3CC2CC2)[C@H]1O5 [nalmefene, 17-cyclopropylmethyl-4,5α-epoxy-6-methylenemorphinan-3,14-diol]",solubility,"physchem; 40 °C, oil or lipid, Approximate Solubility (mg/mL) in Excipient: Cottonseed oil, Cottonseed oil",< 25 mg/mL
same,solubility,"physchem; 40 °C, oil or lipid, Approximate Solubility (mg/mL) in Excipient: Sesame oil, Sesame oil",< 25.5 mg/mL
same,solubility,"physchem; 40 °C, organic solvent or mixture, Approximate Solubility (mg/mL) in Excipient: Ethanol, Ethanol",102 to 137 mg/mL
